Laboratory results: ChEMBL document CHEMBL3430912, “GSK Tres Cantos Anti-Kinetoplastid Screening (TCAKS) Data”
pIC50: −log10 of the molar value.

Key:
Leishmania donovani [1] = assay: GSK_TCAKS: pIC50 Leishmania donovani Imaging: Amastigotes/Macrophages. Assay plates (384-well) were prepared by adding 250nL of compound to each well. For single shot assay, the final compound concentration was 5 uM. […] Automated image analysis was performed with a script developed on Acapella High Content Imaging and Analysis Software (PerkinElmer). Output: Average number of amastigotes per macrophage cell were reported for each well.; type: functional, organism-based, Homo sapiens; details: THP-1
Leishmania donovani [2] = assay: GSK_TCAKS: pIC50 Leishmania donovani Imaging: THP-1 Host Macrophages. Assay plates (384-well) were prepared by adding 250nL of compound to each well. For single shot assay, the final compound concentration was 5 uM. […] Automated image analysis was performed with a script developed on Acapella High Content Imaging and Analysis Software (PerkinElmer). Output: THP-1 cell count were reported for each well.; type: functional, organism-based, Homo sapiens
Leishmania donovani [3] = assay: GSK_TCAKS: pIC50 Leishmania donovani Imaging: Infected Macrophages. Assay plates (384-well) were prepared by adding 250nL of compound to each well. For single shot assay, the final compound concentration was 5 uM. […] Automated image analysis was performed with a script developed on Acapella High Content Imaging and Analysis Software (PerkinElmer). Output: Percent of infected macrophage cells were reported for each well.; type: functional, organism-based, Homo sapiens; details: THP-1
[4] = molecular target: Sterol 14-alpha demethylase (Trypanosoma cruzi (strain CL Brener), UniProt Q7Z1V1); assay: GSK_TCAKS: pIC50 CYP51 from Trypanosoma cruzi.; type: functional
Sequence of Sterol 14-alpha demethylase (Q7Z1V1 whole entry): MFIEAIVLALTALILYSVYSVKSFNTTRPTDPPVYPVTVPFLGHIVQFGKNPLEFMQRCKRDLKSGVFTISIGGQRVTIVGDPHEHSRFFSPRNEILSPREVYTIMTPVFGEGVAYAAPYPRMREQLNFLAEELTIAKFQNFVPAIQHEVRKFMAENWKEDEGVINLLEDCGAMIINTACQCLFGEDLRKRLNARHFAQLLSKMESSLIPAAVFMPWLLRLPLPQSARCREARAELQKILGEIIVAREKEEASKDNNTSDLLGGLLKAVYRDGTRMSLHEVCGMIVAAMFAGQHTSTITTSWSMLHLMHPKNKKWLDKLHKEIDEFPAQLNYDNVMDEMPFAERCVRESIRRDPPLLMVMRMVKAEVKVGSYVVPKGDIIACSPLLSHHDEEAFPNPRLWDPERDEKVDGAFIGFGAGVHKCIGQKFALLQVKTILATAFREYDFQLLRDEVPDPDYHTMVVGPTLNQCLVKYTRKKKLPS

Leishmania donovani [5] = assay: GSK_TCAKS: pIC50 Leishmania donovani viability assay using fluorescence intensity. Assay plates (1536-well) were prepared by adding 30nL per well of compound. For single shot assay, the final compound concentration was 5uM. […] Briefly, eGFP LdBOB axenic amastigotes were harvested, fixed and counted in a CASY cell counter (Roche-Applied Science). A final concentration of 1.5 * 10^5 cells per well were prepared in amastigote media containing 500 U/mL penicillin/streptomycin (Invitrogen) and 6uL was dispensed to each experimental well using a Multidrop Combi dispenser (Thermo Scientific). 6uL of assay media was dispensed to control columns used as reference for 100% compound response. Following incubation for 72 h at 37C, 5% CO2, 2 uL of resazurin was added to each well at a final concentration of 0.5 mM in phosphate buffered saline (PBS) with IGEPAL (Sigma-Aldrich), 0.05% (v/v).; type: functional, organism-based
[6] = GSK_TCAKS: pIC50 HepG2 human cell line viability assay using luminiscence. […] Seeding density was checked to ensure that new mono-layers were not more than 50% confluent at the time of harvesting. Cell suspension was added to 500 mL of the same medium at a final density of 1.2 * 10^5 cells/mL. This cell suspension was dispensed (25 uL, 3000 cells per well) into 384-well clear-bottom plates using a Multidrop Combi dispenser. Prior to addition of the cell suspension, the screening compounds (250 nL) were pre-dispensed into the plates with an Echo liquid handler. Plates were incubated for 48 h at 37C, 5% CO2. After incubation, plates equilibrated at room temperature for 30 min before proceeding to develop the luminescent signal. The signal developer, CellTiter-Glo Reagent, was allowed to equilibrate at room temperature for 30 min and added to the plates (25uL per well) using a Multidrop Combi dispenser. Plates were left for 10 min at room temperature for stabilization and then read using a ViewLux.; type: toxicity, cell-based
[7] = system: Trypanosoma brucei brucei; assay: GSK_TCAKS: pIC50 Trypanosoma brucei viability assay using fluorescence intensity. Assay plates (1536-well) were prepared by dispensing 25nL of compound solution per well using an Echo acoustic dispenser (Labcyte).; type: functional, organism-based; details: Lister 427, 2 h
[8] = system: Trypanosoma brucei brucei; assay: GSK_TCAKS: pIC50 Trypanosoma brucei viability assay using luminiscence. Assay plates (1536-well) were prepared. T. brucei cultures were harvested and counted in a CASY cell counter. A parasite suspension was prepared at a final concentration of 5 * 10^4 cells/mL in complete HMI9 medium and 6uL was dispensed to all wells containing compounds using a Multidrop Combi dispenser. 6uL of HMI9 media with 0.4% DMSO were dispensed to control columns. Plates were incubated for 24 h at 37C, 5% CO2 then tempered for 10 min at room temperature. ATP content was quantified by adding 4 uL of CellTiter-Glo Reagent (Promega) according to the manufacturer's instructions. Luminescence was measured using a ViewLux.; type: functional, organism-based; details: Lister 427, CASY
Trypanosoma cruzi [9] = assay: (§1) GSK_TCAKS: pIC50 H2C9 Imaging: H9c2 Host Cardiomyocytes. […] Cells were then washed once with PBS before infection. T. cruzi trypomastigotes, collected at days 5 to 8 after infection from LLC-MK2 parasite infected cultures, were allowed to swim out for 4h at 37C from a centrifuged pellet (2,500 rpm/10 min/room temperature). Trypomastigotes were then collected and counted in a CASY Cell Counter. Trypomastigotes, in supplemented DMEM, were added to H9c2 cultures in a multiplicity of infection of 1 and incubated for 18 h. Cells were washed once with PBS before incubation of the infected H9c2 monolayer with trypsin (Life-Technologies) to detach cells from the flask. Cells were counted in a CASY Cell Counter using a 150 um capillary and their density set at 5 * 10^4 cells per mL in supplemented assay DMEM. Infected H9c2 were dispensed into 384-well poly-lysine coated assay plates at 50uL per well using a Multidrop Combi dispenser. After seeding them, the plates were incubated at 37C, 5% CO2 for 72h. Cultures were then fixed and stained by addition of 50 uL of a solution containing 8% formaldehyde and 4 uM DRAQ5 DNA dye (BioStatus, UK) per well. […] Five images were collected per well for reliable statistical analysis. Automated image analysis was performed with a script developed on Acapella High Content Imaging and Analysis Software (PerkinElmer). Output: Number of H9c2 Host Cardiomyocytes nuclei to determine drug-related cytotoxicity.; type: functional, organism-based, Rattus norvegicus; details: H9c2, 4 h
Trypanosoma cruzi [10] = assay: as §1, with “Trypanosoma cruzi” for “H2C9”, “Infected Cells.” for “H9c2 Host Cardiomyocytes.”, “percentage” for “Number”, “infected cells per well as a second infection marker.” for “H9c2 Host Cardiomyocytes nuclei to determine drug-related cytotoxicity.”; type: functional, organism-based, Rattus norvegicus; details: H9c2, 4 h
Trypanosoma cruzi [11] = assay: as §1, with “Trypanosoma cruzi” for “H2C9”, “Amastigotes/Cell.” for “H9c2 Host Cardiomyocytes.”, “number” for “Number”, “amastigotes per cell as infection level measurement.” for “H9c2 Host Cardiomyocytes nuclei to determine drug-related cytotoxicity.”; type: functional, organism-based, Rattus norvegicus; details: H9c2, 4 h
Trypanosoma cruzi [12] = assay: GSK_TCAKS: pIC50 Trypanosoma cruzi viability assay using beta-GAL activity. This assay was run at single shot at 5uM compound concentration per well. The biological reagents consisted of NIH-3T3 host cells and trypomastigotes parasitic cells; both cell types were set to a 3.3 * 10^5 cells/mL dilution in assay DMEM by means of a CASY cell counter device using a 60um capillary. 6 uL of the mixture were dispensed per well (about 1 * 10^3 host-cells and 1 * 10^3 parasites) with a Multidrop Combi dispenser. […] In all wells, the percentage of DMSO never exceeded 0.5%. Plates incubated for four days at 37C, 5% CO2. The substrate used for the assay fluorescence intensity (FLINT) readout was resorufin-beta-D-galactopiranoside (Sigma-Aldrich) at 5uM per well. It was diluted in PBS supplemented with the soft detergent Igepal (Fluka).; type: functional, organism-based, Mus musculus; details: Tulahuen, NIH3T3

SMILES | pIC50 (Leishmania donovani [1]) | pIC50 (Leishmania donovani [2]) | pIC50 (Leishmania donovani [3]) | pIC50 [4] | pIC50 (Leishmania donovani [5]) | IC50 at 48 h [6] | pIC50 [7] | pIC50 [8] | pIC50 (Trypanosoma cruzi [9]) | pIC50 (Trypanosoma cruzi [10]) | pIC50 (Trypanosoma cruzi [11]) | pIC50 (Trypanosoma cruzi [12])
Nc1nc(-c2ccccn2)nc(-n2nc(-c3cccc(C(F)(F)F)c3)cc2N)n1 | 6.30 | 5.30 | 6.10 | < 4.00 | 5.00 | 20000 nM |  |  |  |  |  | 
c1ccc2sc(Nc3nc4ncccc4[nH]3)nc2c1 | 5.90 | 4.80 | 5.60 |  | 5.80 | 20000 nM | 6.00 | 5.80 | 6.00 | 5.80 | 5.90 | 6.00
COCc1cc(Nc2cccc(Cl)c2)nc(-c2ccccn2)n1 | 6.20 | < 4.30 | 5.80 |  | 5.60 | 39800 nM |  |  |  |  |  | 
COc1ccc(NS(=O)(=O)c2ccc(S(=O)(=O)N(C)C3CCCCC3)cc2)c2ncccc12 | 6.80 | < 4.30 | 6.50 |  | < 4.30 | > 100000 nM |  |  |  |  |  | 
CCN(CC)S(=O)(=O)c1ccc(C)c(NC(=O)c2cc(Cl)c3c(c2)OCO3)c1 | < 4.30 | < 4.30 | < 4.30 |  | < 4.30 | > 100000 nM | 6.50 | 6.80 | 4.60 | < 4.30 | < 4.30 | 5.20
COc1ccc(Oc2ccc(C(C)N(C)c3ncc4c(N)nc(N)nc4n3)cc2)cc1 (configuration not stated) | 7.30 | 4.80 | 7.00 | 5.80 | 7.40 | 39800 nM |  |  |  |  |  | 
Cc1[nH]nc(-c2nc3ccccc3[nH]2)c1C(=O)NC1CCCNC1 (configuration not stated) | 5.20 | 5.80 | 5.20 |  | 5.00 | > 100000 nM | 6.40 | 6.30 | 5.50 | 7.20 | 7.40 | 6.10
CNS(=O)(=O)c1ccccc1Nc1nc(Nc2ccnn2C)ncc1Cl | 6.40 |  | 6.20 | 4.50 |  | 50100 nM | 7.20 | 7.00 |  | 6.00 | 6.20 | 6.40
Cc1nn(-c2nc3ccccc3[nH]2)c2c1C(c1ccc(O)cc1)CC(=O)N2 (configuration not stated) | 6.30 | 5.20 | 6.00 | 4.60 | 6.10 | 25100 nM |  |  |  |  |  | 
C=CC[C@@H]1CC=C[C@@H](C)N1C(=O)CCc1nnc(-c2ccc3c(c2)OCO3)o1 | 5.50 | 4.90 | 5.10 | 4.40 | 5.20 | > 100000 nM |  |  |  |  |  | 
O=C1c2cnc(N3CCCC3)nc2CN1c1ccc2c(c1)OCO2 | 5.20 | < 4.30 | 5.00 | < 4.00 | 5.20 | > 100000 nM |  |  |  |  |  | 5.60
COc1ccccc1C(=O)Nc1nnc(-c2ccc3c(c2)OCO3)s1 | 6.20 | 4.80 | 6.00 | < 4.00 | 6.00 | > 100000 nM |  |  |  |  |  | 5.60
N=C(N)Nc1nc(-c2ccc(NC(=N)NCCN3CCCC3)cc2)cs1 | < 4.30 | < 4.30 | < 4.30 |  | < 4.30 | > 100000 nM | 7.40 | 7.00 | < 4.30 | < 4.30 | < 4.30 | < 4.30
Oc1c(-c2nnc(Cc3ccc(F)cc3)[nH]2)ncc2cccnc12 | 6.00 | 4.70 | 6.00 | < 4.00 | 6.90 | 25100 nM |  |  |  |  |  | 6.80
Oc1c(-c2nnc(Cc3ccc(Cl)cc3)[nH]2)ncc2cccnc12 | 6.00 | 4.70 | 5.90 | 4.50 | 6.60 | 39800 nM |  |  |  |  |  | 
COc1ccc(Cc2nnc(-c3ncc4cccnc4c3O)[nH]2)cc1OC | 5.60 | 4.70 | 5.50 | < 4.00 | 6.50 | 50100 nM |  |  |  |  |  | 5.90
c1ccc(-c2nc(NC3CCCCC3)cc(C3CC3)n2)nc1 | 5.50 | 4.70 | 5.40 | < 4.00 | 6.10 | 39800 nM |  |  |  |  |  | 
